Results on 15 compounds are retold here after patent publication US4572911A, “Hexahydroindolinzine compounds, pharmaceutical compositions and methods and intermediates” (priority 1984, dated 1986).

Where a name gives a salt, the structure may show the parent alone. Read-outs that look alike come from different tables or passages of the source.

The test system of assay [1] is gastric acid secretion. As to the kind of experiment: Acute Gastric Fistula Rat Test (inhibition of gastric acid secretion, Total Acid Output). In kind it is in vivo, Female Sprague-Dawley rats. The conditions noted are these: 1 h, @ 20 mg/kg i.d. (intraduodenal), collection at one hour, read-out: % Inhibition of TAO (Total Acid Output). Here is the method: The compounds of the invention are useful for inhibition of gastric acid secretion as measured by the following test. Female Sprague-Dawley rats are fasted twenty-four hours before testing and are given water ad libidum while being kept in individual cages. On the day of testing, the rats are weighed and are selected so that the rats in each test weigh within a range of ±20 grams.
Surgery is carried out under light ether anesthesia. As soon as the rat is anesthetized its teeth are removed and a mid-line incision is made on the abdomen about 11/2 inches in length and the stomach and duodenum are exposed. If at this point the stomach is filled with food or fecal material, the rat is not used. If the condition of the stomach is acceptable, a purse string stitch is placed on the fundic portion of the stomach with a suture, taking care not to pierce any blood vessels in the area. A small nick is then made into the stomach in the center of the purse string, and a cannula, consisting of a small vinyl tube with a flange on one end, is put into the stomach, and the purse string stitch is closed tightly around the flange. The test compound is administered intraduodonally (i.d.) immediately after surgery in a volume of 0.5 ml/100 grams rat. Control rats receive the test vehicle, 0.5% aqueous methyl cellulose.
After the surgery and after administration of the test compound, the abdominal wall and skin are closed simultaneously with three or four 10 mm wound clips and a collecting tube is placed on the cannula. Each rat is then placed in a box in which a longitudinal slit has been made to allow the cannula to hang freely and to allow the rat to move about unencumbered. After the rat has been allowed to stabilize for thirty minutes, the collection tube on the cannula is discarded and replaced with a clean tube to receive the gastric juice. Collections are made at one hour.
The sample of gastric contents collected is drained into a centrifuge tube and centrifuged to pack down the sediment. The volume is read and a 1 ml aliquot of the supernatant is put into a beaker containing 10 ml distilled water and is titrated to pH 7 using 0.01 N sodium hydroxide. Results are determined for Volume, Titratable Acid and Total Acid Output, where Volume equals total ml of gastric juice minus sediment; Titratable Acid (meq/1) equals amount of 0.01 N sodium hydroxide needed to titrate the acid to pH 7; and Total Acid Output equals Titratable Acid times Volume. Results are reported as % inhibition of Total Acid Output (TAO) for a dose of 20 mg/kg i.d. of the compound of formula (I) or (II). Particularly useful are compounds having significant inhibition of TAO at a dose of 20 mg/kg.

For assay [2], the system named is depressant effects of tetrabenazine (TBZ). As to the kind of experiment: tetrabenazine (TBZ) antagonism assay for antidepressant agents. In kind it is in vivo. The conditions noted are these: Mus musculus, ip, 0.5 h, mice, test compound i.p. 30 minutes prior to 32 mg/kg i.p. TBZ. How it is done:
This is the "classical" tetrabenazine antagonism assay described in U.S. Pat. No. 3,787,577. Mice are injected with a test compound 30 minutes prior to the injection of 32 mg/kg i.p. of TBZ, a drug which decreases normal exploratory activity and induces ptosis. After 30 minutes, the mice are tested for two parameters: the presence of normal exploratory activity (EA) and reversal of ptosis (Pt). A control group of mice is given only 32 mg/kg i.p. of TBZ.

Setting [3] is: normal exploratory activity, read-out: TBZ ED50 EA (exploratory activity).
Where [4] appears, read: reversal of ptosis, read-out: TBZ ED50 Pt (reversal of ptosis).

`c1ccc([C@@H]2CN3CCC[C@H]3c3ccsc32)cc1` (relative stereo) [19 (1st), 4,5,7,8,9,9a-alpha-Hexahydro-4-alpha-phenylthieno[2,3-g]indolizine]: in assay [1], the inhibition in vivo at 20 mg/kg is 98%. Still for that read-out and setting: then `CC12CCCN1CCc1[nH]ccc12` (stereo not shown) [Example 5, 4,5,7,8,9,9a-Hexahydro-9a-methyl-3H-pyrrolo[2,3-g]-indolizine E-(2-)butenedioate(1:1)], with 66%; and `c1ccc([C@@H]2CN3CCC[C@H]3c3sccc32)cc1` (relative stereo) [19 (3rd), 4,5,7,8,9,9a-alpha-hexahydro-4-alpha-phenylthieno[3,2-g]indolizine], with 88%. With `Cn1ccc2c1C1(C)CCCN1CC2` (stereo not shown) [Example 16, 1,9a-Dimethyl-4,5,7,8,9,9a-hexahydro-1H-pyrrolo[3,2-g]indolizine cyclohexanesulfamate], the inhibition in vivo at 20 mg/kg in assay [1] was 86%. On the same count and under the same terms, with `c1csc([C@@H]2CN3CCC[C@H]3c3ccsc32)c1` (relative stereo) [20 (1st), 4,5,7,8,9,9a-alpha-Hexahydro-4-alpha-(2-thienyl)thieno[2,3-g]indolizine] the figure was 47%; with `Cn1ccc2c1CCN1CCCC21C` (stereo not shown) [Example 13, 3,9a-Dimethyl-4,5,7,8,9,9a-hexahydro-3H-pyrrolo[2,3-]indolizine hydrochloride], 74%.

As to `c1ccc([C@@H]2CN3CCC[C@@H]3c3ccsc32)cc1` (relative stereo) [19 (2nd), 4,5,7,8,9,9a-beta-hexahydro-4-alpha-phenylthieno[2,3-g]indolizine], the inhibition in vivo at 20 mg/kg in assay [1] is 98%.

Regarding `c1csc([C@@H]2CN3CCC[C@@H]3c3ccsc32)c1` (relative stereo) [20 (2nd), 4,5,7,8,9,9a-beta-hexahydro-4-alpha-(2-thienyl)thieno[2,3-g]indolizine], in assay [1], the inhibition in vivo at 20 mg/kg was determined as 41%. Further, the median effective dose (ED50) in assay [2] (setting [3]) is around 24 mg/kg; in assay [2] (setting [4]) it was around 30 mg/kg. For `Cn1ccc2c1CCN1CCCC21c1ccccc1` (stereo not shown) [Example 7, 4,5,7,8,9,9a-Hexahydro-3-methyl-9a-phenyl-3H-pyrrolo[2,3-g]indolizine], in assay [1], the inhibition in vivo at 20 mg/kg turned out to be 86%. On the same count and under the same terms, with `Cn1ccc2c1CCN1C(c3ccc(Cl)cc3)CCC21C` (stereo not shown) [Example 12, 7-(4-Chlorophenyl)-4,5,7,8,9,9a-hexahydro-3,9a-dimethyl-3H-pyrrolo[2,3-g]indolizine (E)-2-butenedioate (1:7) hydrate (1:2)] the figure was 37%; with `C[C@@]12CCCN1C[C@@H](c1ccccc1)c1sccc12` (relative stereo) [Example 18, 4,5,7,8,9,9a-Hexahydro-9a-alpha-methyl-4-alpha-phenylthieno-[2,3-g]indolizine perchlorate (1:1)], 100%; with `Cn1ccc2c1[C@H](c1ccccc1)CN1CCC[C@@H]21` (relative stereo) [17 (1st), 4,5,7,8,9,9a-alpha-Hexahydro-3-methyl-4-alpha-phenyl-3H-pyrrolo[2,3-g]indolizine], 90%. In the case of `CC12CCCN1CCc1c2ccn1Cc1ccccc1Cl` (stereo not shown) [Example 4, 3-(2-Chlorobenzyl)-4,5,7,8,9,9a-hexahydro-9a-methyl-3H-pyrrolo[2,3-g]indolizine], in assay [1], the inhibition in vivo at 20 mg/kg amounted to 78%.

With `Cn1ccc2c1[C@H](c1ccccc1)CN1CCC[C@H]21` (relative stereo) [17 (2nd), 4,5,7,8,9,9a-beta-Hexahydro-3-methyl-4-alpha-phenyl-3H-pyrrolo[2,3-g]indolizine], the inhibition in vivo at 20 mg/kg in assay [1] was determined as 88%. The figures for the ED50 in assay [2] (setting [3]) and in assay [2] (setting [4]) were 2.4 mg/kg and around 0.75 mg/kg, respectively.

Consider `CC12CCCN1CCc1c2ccn1-c1ccccc1` (stereo not shown) [Example 10, 4,5,7,8,9,9a-Hexahydro-9a-methyl-3-phenyl-3H-pyrrolo[2,3-g]indolizine], for which the inhibition in vivo at 20 mg/kg in assay [1] was determined as 82%.

The ED50 is the dose at which the effect has come halfway, by size or by number of responders.
